What was measured:
[1] = tested on: high-risk patients diagnosed with primary osteoporosis; assay: Femur (neck, proximal) bone density by DXA, Working Example 2; type: in vivo, human; details: 200 units once a week; for Change in bone density (%): patients taking glucocorticoid
Experimental: For the bone density of the femur, only the left side of the proximal part of the femur, rotated 20°, was measured at the start and every 24 weeks thereafter using dual-energy x-ray absorptiometry (DXA).

[2] = tested on: high-risk patients diagnosed with primary osteoporosis; assay: Worsening vertebral fractures, Working Example 2; type: in vivo, human; details: FAS, 200 units once a week
Source text: The vertebral fractures in the present invention also include both new fractures and worsening fractures. […] New and worsening [fractures] can be classified by the grade increase pattern according to the criteria of Genant. Concretely speaking, a fracture is diagnosed as a new fracture when a change is found from grade 0 to grade 1, 2, or 3. It can be regarded as a worsening fracture when a change is found from grade 1 to grade 2 or 3 or from grade 2 to grade 3. The vertebral height was measured according to the method of Inoue et al. (Non-patent reference 35) and the method of Hayashi et al. (Non-patent Reference 36) to accurately assess the changes in grade.
(§1) The incidence of bone fractures was checked by frontal and lateral x-rays of the fourth thoracic to the fourth lumbar spine taken at the start and every 24 weeks thereafter.

[3] = tested on: high-risk patients diagnosed with primary osteoporosis; assay: New vertebral fractures (incl. multiple), Working Example 2 (200 units once a week vs placebo, 72 weeks); type: in vivo, human; details: for New vertebral fractures: Incidence (%) / New vertebral fractures: No. of subjects: 72 weeks; for No. with fractures: new vertebral fractures
Source text: The above patients also took two tablets of a calcium agent once a day after dinner. […] The preparation contained precipitated calcium carbonate, magnesium carbonate, cholecalciferol (vitamin D3), and the like as components and is marketed under the trade name New Calcichew (trademark) D3″ (sold by: Daiichi Sankyo Health Care, manufactured and sold by: Nitto Pharmaceutical Industries, Ltd.).
The numbers of patients administered the test drug and control were 290 (also sometimes referred to as the test drug group in the working example) and 288 (also sometimes referred to as the control group in the working example), respectively. The total number administered was 578. However, the number in each group sometimes differs depending on the type of test and is expressed, for example, by (n=**) or the number evaluated, or the like.
as §1
Here, “multiple vertebral fractures” was defined as two or more new vertebral fractures. When the incidence of multiple vertebral fractures (number of cases) was compared in the test drug group (n=261) and control group (n=281) after 72 weeks of administration, it was 2.1% (6 cases) in the control group and 0.8% (2 cases) in the test drug group.

[4] = in vivo
Source text: The incidence of adverse events was studied after administering the test drug to the a group of osteoporosis patients having normal renal function, a group of osteoporosis patients having mild renal dysfunction, and a group of osteoporosis patients having moderate renal dysfunction.

[5] = No. of fractures: Five or more, 200 units once a week
[6] = No. of fractures: Four, 200 units once a week
[7] = No. of fractures: One, 200 units once a week
[8] = No. of fractures: Three, 200 units once a week
[9] = No. of fractures: Two, 200 units once a week
[10] = history of Alfacalcidol, 200 units once a week
[11] = history of Calcitriol, 200 units once a week
[12] = history of Calcium L-aspartate, 200 units once a week
[13] = history of Calcium lactate, 200 units once a week
[14] = history of Elcatonin, 200 units once a week
[15] = history of Menatetrenone, 200 units once a week
[16] = history of Raloxifene hydrochloride, 200 units once a week
[17] = patients taking glucocorticoid, 200 units once a week
[18] = two or more new vertebral fractures, after 72 weeks, 200 units once a week

In the case of teriparatide acetate, the “Percentage change in bone density (%)” value ([1]; Neck of femur, 24 W, history of Alfacalcidol) is reported as 1.64%, the “Percentage change in bone density (%)” value ([1]; Neck of femur, 24 W, history of Calcitriol) is reported as −0.60% and the “Percentage change in bone density (%)” value ([1]; Neck of femur, 24 W, history of Calcium L-aspartate) is reported as 1.44%. The “Percentage change in bone density (%)” value ([1]; Neck of femur, 24 W, history of Calcium lactate) was 0.30%, the “Percentage change in bone density (%)” value ([1]; Neck of femur, 24 W, history of Elcatonin) was 1.62% and the “Percentage change in bone density (%)” value ([1]; Neck of femur, 24 W, history of Menatetrenone) was 0.72%. The “Percentage change in bone density (%)” value ([1]; Neck of femur, 24 W, history of Raloxifene hydrochloride) was 0.21%, the “Change in bone density (%)” value ([1]; Neck of femur, 24 W) was 2.53% and the “Percentage change in bone density (%)” value ([1]; Neck of femur, 48 W, history of Alfacalcidol) was 0.85%. For the same substance, the “Percentage change in bone density (%)” value ([1]; Neck of femur, 48 W, history of Calcitriol) was −4.03%, the “Percentage change in bone density (%)” value ([1]; Neck of femur, 48 W, history of Calcium L-aspartate) was 1.88% and the “Percentage change in bone density (%)” value ([1]; Neck of femur, 48 W, history of Calcium lactate) was −4.35%. For the same substance, the “Percentage change in bone density (%)” value ([1]; Neck of femur, 48 W, history of Elcatonin) was 0.72%, the “Percentage change in bone density (%)” value ([1]; Neck of femur, 48 W, history of Menatetrenone) was −3.18% and the “Percentage change in bone density (%)” value ([1]; Neck of femur, 48 W, history of Raloxifene hydrochloride) was 1.03%. For the same substance, the “Change in bone density (%)” value ([1]; Neck of femur, 48 W) was 2.79%, the “Percentage change in bone density (%)” value ([1]; Neck of femur, 72 W, history of Alfacalcidol) was 2.19% and the “Percentage change in bone density (%)” value ([1]; Neck of femur, 72 W, history of Calcitriol) was −3.53%. For the same substance, the “Percentage change in bone density (%)” value ([1]; Neck of femur, 72 W, history of Calcium L-aspartate) was 4.17%, the “Percentage change in bone density (%)” value ([1]; Neck of femur, 72 W, history of Calcium lactate) was −2.53% and the “Percentage change in bone density (%)” value ([1]; Neck of femur, 72 W, history of Elcatonin) was 3.15%. The “Percentage change in bone density (%)” value ([1]; Neck of femur, 72 W, history of Menatetrenone) was −0.78%, the “Percentage change in bone density (%)” value ([1]; Neck of femur, 72 W, history of Raloxifene hydrochloride) was −0.51% and the “Change in bone density (%)” value ([1]; Neck of femur, 72 W) was 2.44%. For the same substance, the “Percentage change in bone density (%)” value ([1]; Proximal femur, 24 W, history of Alfacalcidol) was 2.77%, the “Percentage change in bone density (%)” value ([1]; Proximal femur, 24 W, history of Calcitriol) was −1.40% and the “Percentage change in bone density (%)” value ([1]; Proximal femur, 24 W, history of Calcium L-aspartate) was 1.76%. The “Percentage change in bone density (%)” value ([1]; Proximal femur, 24 W, history of Calcium lactate) was 1.78%, the “Percentage change in bone density (%)” value ([1]; Proximal femur, 24 W, history of Elcatonin) was 3.86% and the “Percentage change in bone density (%)” value ([1]; Proximal femur, 24 W, history of Menatetrenone) was 0.60%. The “Percentage change in bone density (%)” value ([1]; Proximal femur, 24 W, history of Raloxifene hydrochloride) was 2.44%, the “Change in bone density (%)” value ([1]; Proximal femur, 24 W) was 2.46% and the “Percentage change in bone density (%)” value ([1]; Proximal femur, 48 W, history of Alfacalcidol) was 2.31%. For the same substance, the “Percentage change in bone density (%)” value ([1]; Proximal femur, 48 W, history of Calcitriol) was −1.05%, the “Percentage change in bone density (%)” value ([1]; Proximal femur, 48 W, history of Calcium L-aspartate) was 2.28% and the “Percentage change in bone density (%)” value ([1]; Proximal femur, 48 W, history of Calcium lactate) was −1.68%. For the same substance, the “Percentage change in bone density (%)” value ([1]; Proximal femur, 48 W, history of Elcatonin) was 3.44%, the “Percentage change in bone density (%)” value ([1]; Proximal femur, 48 W, history of Menatetrenone) was −0.56% and the “Percentage change in bone density (%)” value ([1]; Proximal femur, 48 W, history of Raloxifene hydrochloride) was 2.26%. For the same substance, the “Change in bone density (%)” value ([1]; Proximal femur, 48 W) was 3.39%, the “Percentage change in bone density (%)” value ([1]; Proximal femur, 72 W, history of Alfacalcidol) was 2.31% and the “Percentage change in bone density (%)” value ([1]; Proximal femur, 72 W, history of Calcitriol) was −0.04%. For the same substance, the “Percentage change in bone density (%)” value ([1]; Proximal femur, 72 W, history of Calcium L-aspartate) was 3.69%, the “Percentage change in bone density (%)” value ([1]; Proximal femur, 72 W, history of Calcium lactate) was −3.20% and the “Percentage change in bone density (%)” value ([1]; Proximal femur, 72 W, history of Elcatonin) was 4.41%. For the same substance, the “Percentage change in bone density (%)” value ([1]; Proximal femur, 72 W, history of Menatetrenone) was −1.40%, the “Percentage change in bone density (%)” value ([1]; Proximal femur, 72 W, history of Raloxifene hydrochloride) was 3.03% and the “Change in bone density (%)” value ([1]; Proximal femur, 72 W) was 3.06%. For the same substance, the “Difference between test drug group and control group after 72 W (%)” value ([2]; incidence of worsening fractures) was 1.8%, the No. with fractures ([2]; worsening fractures) was 1 and the “Occurrence of new vertebral fractures after 48 weeks” value ([3]; 48 to 72 weeks division, 200 units once a week) was “no new vertebral fractures occurred after 48 weeks”. The “New vertebral fractures, No. with fractures” value ([3]; FAS, No. evaluated 261) was 7, the “Difference between PTH200 group and P group after 72 W (%)” value ([3]; FAS, incidence of new vertebral fractures after 72 W) was 11.4% and the “New vertebral fractures: Incidence (%)” value [3, 5] was 0.0%. For the same substance, the “New vertebral fractures: No. of subjects” value [3, 5] was 0, the “New vertebral fractures: Incidence (%)” value [3, 6] was 0.0% and the “New vertebral fractures: No. of subjects” value [3, 6] was 0. For the same substance, the “New vertebral fractures: Incidence (%)” value [3, 7] was 1.9%, the “New vertebral fractures: No. of subjects” value [3, 7] was 5 and the “New vertebral fractures: Incidence (%)” value [3, 8] was 0.0%. For the same substance, the “New vertebral fractures: No. of subjects” value [3, 8] was 0, the “New vertebral fractures: Incidence (%)” value [3, 9] was 0.8% and the “New vertebral fractures: No. of subjects” value [3, 9] was 2. For the same substance, the “New vertebral fractures, No. with fractures” value ([3]; Time after administration >24 W-≦48 W, No. evaluated 219) was 2, the “New vertebral fractures, No. with fractures” value ([3]; Time after administration >48 W-≦72 W, No. evaluated 206) was 0 and the “New vertebral fractures, No. with fractures” value ([3]; Time after administration ≦24 W, No. evaluated 261) was 6. For the same substance, the “Incidence of new vertebral fractures (%)” value ([3]; creatinine clearance at start Abnormal (<80), After 24 W, 200 units once a week) was 2.8%, the “Incidence of new vertebral fractures (%)” value ([3]; creatinine clearance at start Abnormal (<80), After 48 W, 200 units once a week) was 3.4% and the “Incidence of new vertebral fractures (%)” value ([3]; creatinine clearance at start Abnormal (<80), After 72 W, 200 units once a week) was 3.4%. The “Incidence of new vertebral fractures (%)” value ([3]; creatinine clearance at start Normal (≧80), After 24 W, 200 units once a week) was 0.0%, the “Incidence of new vertebral fractures (%)” value ([3]; creatinine clearance at start Normal (≧80), After 48 W, 200 units once a week) was 0.0% and the “Incidence of new vertebral fractures (%)” value ([3]; creatinine clearance at start Normal (≧80), After 72 W, 200 units once a week) was 0.0%. The “New vertebral fractures: No” value [3, 10] was 62, the “New vertebral fractures: Yes” value [3, 10] was 1 and the “New vertebral fractures: No” value [3, 11] was 7. The “New vertebral fractures: Yes” value [3, 11] was 1, the “New vertebral fractures: No” value [3, 12] was 28 and the “New vertebral fractures: Yes” value [3, 12] was 1. The “New vertebral fractures: No” value [3, 13] was 8, the “New vertebral fractures: Yes” value [3, 13] was 0 and the “New vertebral fractures: No” value [3, 14] was 35. The “New vertebral fractures: Yes” value [3, 14] was 2, the “New vertebral fractures: No” value [3, 15] was 6 and the “New vertebral fractures: Yes” value [3, 15] was 0. For the same substance, the “New vertebral fractures: No” value [3, 16] was 20, the “New vertebral fractures: Yes” value [3, 16] was 0 and the No. with fractures ([3]; Complication (diabetes): No, 200 units once a week) was 7. For the same substance, the No. with fractures ([3]; Complication (diabetes): Yes, 200 units once a week) was 0, the No. with fractures ([3]; Complication (hyperlipidemia): No, 200 units once a week) was 4 and the No. with fractures ([3]; Complication (hyperlipidemia): Yes, 200 units once a week) was 3. It also gave a No. with fractures ([3]; Complication (hypertension): No, 200 units once a week) of 3, a No. with fractures ([3]; Complication (hypertension): Yes, 200 units once a week) of 4 and a No. with fractures ([3]; Prior osteoporosis treatment (no), 200 units once a week) of 4. The No. with fractures ([3]; Prior osteoporosis treatment (yes), 200 units once a week) was 3, the No. with fractures ([3]; creatinine clearance at start Abnormal (<80), 200 units once a week) was 6 and the No. with fractures ([3]; creatinine clearance at start Normal (≧80), 200 units once a week) was 0. The “Existence of new vertebral fractures, Fracture: no” value [3, 17] was 29, the “Existence of new vertebral fractures, Fracture: yes” value [3, 17] was 0 and the “Incidence of multiple vertebral fractures” value [3, 18] was 0.8%. The “Multiple vertebral fractures (number of cases)” value [3, 18] was 2 cases, the “Adverse events: No (%)” value [4] was 4.4% and the “Adverse events: No, No. of cases” value [4] was 2. The “Adverse events: Point estimate of the difference” value [4] was 2.0 and the “Adverse events: Yes, No. of cases” value [4] was 65.
